Results taken from patent US20070218504A1, “HUMAN LEPTIN-DERIVED POLYPEPTIDES AND USES THEREOF” (UNIVERSITY OF PITTSBURGH, priority 2006, published 2007).

Key:
ob/ob mice [1] = test: Subcutaneous micro-osmotic pump infusion of human CRP and human leptin in ob/ob mice; type: in vivo, mouse; settings: for effect of CRP alone on food intake and body weight: CRP without leptin
Experimental: Micro-osmotic pumps (#1007D, DURECT, Cupertino, Calif.) were subcutaneously implanted into ob/ob or wild-type mice according to the instructions of the manufacturer. The osmotic pumps were pre-filled with saline, CRP, leptin or leptin plus CRP. Food intake (24-hour), body weight, and body temperature were monitored daily post-surgery. Blood glucose concentrations were measured using tail-vein blood samples using a Precision Plus® glucose meter, product of Medisense (Abbot Park, Ill.).
Human- and mouse-leptin concentrations were measured using ELISA kits from CHEMICON (Temecular, Calif.) and R&D Systems (Minneapolis, Minn.), respectively, accordingly to the instructions of the manufacturers. Serum mouse insulin and human CRP were determined with ELISA kits from LINCO Research (St. Charles, Mo.) and HELICA (Fullerton, Calif.), respectively. Serum- and tissue-triglycerides were determined with the protocols described previously (19).
Various amounts of human CRP, either alone or with human leptin, were administered via micro-osmotic pumps implanted s.c. into 8-week old ob/ob mice.
The above in vivo data were harvested from mice experiencing infusions of a mixture of CRP and leptin stored in a single mini-osmotic pump. Human CRP and leptin were also infused in separate osmotic pumps. […] Also compared to infusion from a single pump, detectable effects of human CRP on leptin were realized later, likely due to the time required to achieve diffusion and binding equilibrium.

ob/ob mice [2] = test: Intracerebralventricular (i.c.v.) injection of human CRP and leptin in ob/ob mice, food intake and body weight; type: in vivo, mouse
Experimental: Male C57BL/6J ob/ob mice used in this study were obtained from the Jackson Laboratory, Bar Harbor. Mice (7-8 weeks of age) were fed standard chow and water ad libitum, housed in individual cages under controlled temperature at 22° C. and a 12-hour light-dark cycle with light from 0700 to 1900 h. Food intake and body weight were measured daily throughout the study. All experimental procedures were performed according to protocols approved by the Institutional Animal Care and Use Committee at the University of Pittsburgh. Cannulas were surgically implanted into the lateral ventricles of male ob/ob mice. Specifically, the mice were intraperitoneally anesthetized with 250 mg/Kg Avertin (Sigma-Aldrich). A plastic cannula was inserted into lateral cerebral ventricle: −0.7 mm relative to bregma, 1.3 mm lateral of midline, and 2 mm down to the calvarium. The exteriorized cannula was secured on the skull with original Super Glue. To prevent the cannula from becoming blocked by blood clots, a 28-gauge stainless syringe pinhead was inserted into each cannula. The animals were allowed to recover for 1 week after surgery until the food-intake reaches at least 90% of the pre-operative level. All agents were injected slowly with a volume of 1 μl using a 5 μl syringe (Hamilton, Reno, Nev.). For instance, human CRP was injected at a lower concentration of 1.2 μg per animal and a higher concentration of 2.3 μg per animal into the lateral ventricles. The i.c.v injection of human CRP was followed 24 hours later by injection of human leptin at a sub-maximal dose of 100 ng/animal. In a parallel experiment, human leptin was also injected via i.c.v. following a pre-injection of PBS. In each injection scheme, food was returned to the animals 1 hour after the injection, and the amount of food-intake and body weight were measured 24 hours later. All paired comparisons were subject to a two-tailed Student t-test with P<0.05 considered statistically significant. Additionally, human leptin was injected via i.c.v. for an extended period of two days subsequent to a pre-injection of human CRP with a dosage of 2.3 μg/injection. In a parallel experimental scheme, daily injection of human leptin was performed for two consecutive days subsequent to a pre-injection of PBS.

[3] = human leptin 100 ng/animal i.c.v. after PBS pre-injection, 24 hours

Substance	effect of human CRP on physiological actions of human leptin, separate osmotic pumps (ob/ob mice [1]; food intake, body weight, blood glucose, serum insulin, matched serum CRP)	effect of co-infused human CRP on leptin-induced reduction of food intake and body weight, low dosage (ob/ob mice [1]; human CRP 10 μg/day with human leptin, single pump)	effect on increase of rectal temperature induced by leptin (ob/ob mice [1]; human CRP 40 μg/day)	effect of co-infused human CRP on leptin actions to restrain appetite and induce weight loss, high dosage (ob/ob mice [1]; human CRP 40 μg/day with human leptin, single pump)	activation of STAT3 in hypothalamic tissues on co-infusion of CRP with leptin (ob/ob mice [1]; ob/ob mice)	effect of CRP alone on food intake and body weight (ob/ob mice [1]; ob/ob mice)	effect of CRP alone on food intake and body weight (ob/ob mice [1]; ob/ob mice, listed as CRP)	effect of co-infused human CRP on leptin's alleviation of diabetes (ob/ob mice [1]; ob/ob mice, co-infusion with leptin)	effect of CRP pre-injection on satiety and weight reducing effects of human leptin, 1.2 μg (ob/ob mice [2]; human CRP 1.2 μg i.c.v. 24 hours before leptin)	effect of CRP pre-injection on first injection of human leptin (ob/ob mice [2]; human CRP 2.3 μg/injection)	effect of CRP pre-injection on second injection of human leptin (ob/ob mice [2]; human CRP 2.3 μg/injection)	effect of CRP pre-injection on satiety and weight reducing effects of human leptin, 2.3 μg (ob/ob mice [2]; human CRP 2.3 μg/μl i.c.v. 24 hours before leptin)	food consumed after CRP alone compared to PBS alone (ob/ob mice [2]; i.c.v., ob/ob mice)	total human leptin concentrations in the sera (ob/ob mice [1]; all groups infused with leptin (leptin only or leptin plus CRP), separate osmotic pumps)	effect of leptin on diabetes (blood glucose, plasma insulin, serum- and hepatic triglyceride) (ob/ob mice [1]; ob/ob mice)	effect of human leptin on food-intake and body weight (ob/ob mice [1]; ob/ob mice, 0.3 mg/kg/day s.c. infusion, 6 days)	effect of daily injection of human leptin for two days on food intake and body weight (ob/ob mice [2]; after PBS pre-injection)	decrease in food-intake (ob/ob mice [2]; [3])	reduction of body weight (ob/ob mice [2]; [3])
human CRP: human C-reactive protein, purified preparation from a commercial source	attenuate the physiological actions of human leptin	only partially attenuated	completely blocked	completely block	inhibited	did not affect food intake or body weight	does not influence food intake and body weight	reverted these effects	partially blunted	completely blunted	at least partially blocked	completely blocked	essentially the same amount of food	–	–	–	–	–	–
human leptin: human recombinant leptin	–	–	–	–	–	–	–	–	–	–	–	–	–	15 to 20 ng/mL	alleviated diabetes	expected reduction in food-intake and body weight	gradual decreases in food intake and body weight	40.2%	2.17%
